Results taken from US9609868B2, “Alkoximino-substituted anthranilic acid diamides as pesticides” (BAYER CROPSCIENCE AKTIENGESELLSCHAFT, priority 2013, dated 2017).

Tests used:
Spodoptera frugiperda = Spodoptera frugiperda - spray test (SPODFR); assay type: in vivo; conditions: application rate 100 g/ha, maize leaf disks
Experimental: Spodoptera frugiperda—Spray Test (SPODFR)
(§1) Solvent: 78.0 parts by weight of acetone • • 1.5 parts by weight of dimethylformamide
(§2) Emulsifier: 0.5 parts by weight of alkylaryl polyglycol ether
(§3) To produce a suitable active compound preparation, 1 part by weight of active compound is mixed with the stated amounts of solvent and emulsifier, and the concentrate is diluted with emulsifier-containing water to the desired concentration.
Leaf disks of maize (Zea mays) are sprayed with an active compound preparation of the desired concentration and, after drying, populated with caterpillars of the armyworm (Spodoptera frugiperda).
After the desired period of time, the efficacy in % is determined. 100% means that all the caterpillars have been killed; 0% means that no caterpillars have been killed.

Phaedon cochleariae = Phaedon cochleariae - spray test (PHAECO); assay type: in vivo; conditions: application rate 100 g/ha, Chinese cabbage leaf disks
Experimental: Phaedon cochleariae—Spray Test (PHAECO)
as §1, §2, §3
After the desired period of time, the efficacy in % is determined. 100% means that all the beetle larvae have been killed; 0% means that no beetle larvae have been killed.

[1] = log P by HPLC on reversed-phase column (C18), EEC directive 79/831 Annex V.A8; assay type: physicochemical; conditions: Table C; HPLC reversed-phase C18, 43° C.; data refer to the E isomer
Experimental: The log P values reported in the tables and Preparation Examples above were determined in accordance with EEC directive 79/831 Annex V.A8 by HPLC (High Performance Liquid Chromatography) using a reversed-phase column (C18). Temperature 43° C. The calibration is effected with unbranched alkan-2-ones (having 3 to 16 carbon atoms), for which the log P values are known.

Myzus persicae = Myzus persicae - spray test (MYZUPE); assay type: in vivo; conditions: Chinese cabbage leaf disks
Experimental: Myzus persicae—Spray Test (MYZUPE)
Solvent: 78 parts by weight of acetone • • 1.5 parts by weight of dimethylformamide
as §2, §3
Disks of Chinese cabbage leaves (Brassica pekinensis) infested by all stages of the green peach aphid (Myzus persicae) are sprayed with an active compound preparation of the desired concentration.
After the desired period of time, the efficacy in % is determined. 100% means that all the aphids have been killed; 0% means that none of the aphids have been killed.

Boophilus microplus = Boophilus microplus - injection test (BOOPMI Inj); assay type: in vivo; conditions: application rate 20 μg/animal, injection into engorged adult female cattle ticks
Experimental: Boophilus microplus—Injection Test (BOOPMI Inj)
(§4) Solvent: dimethyl sulfoxide
To produce a suitable preparation of active compound, 10 mg of active compound are mixed with 0.5 ml of solvent and the concentrate is diluted with solvent to the desired concentration.
1 μl of the active compound solution is injected into the abdomen of 5 engorged adult female cattle ticks (Boophilus microplus). The animals are transferred into dishes and kept in a climate-controlled room.
The activity is assessed after the desired time by laying of fertile eggs. Eggs which are not visibly fertile are stored in a climate-controlled cabinet until the larvae hatch after about 42 days. An efficacy of 100% means that none of the ticks has laid any fertile eggs; 0% means that all the eggs are fertile.

Lucilia cuprina = Lucilia cuprina test (LUCICU); assay type: in vivo; conditions: application rate 100 ppm
Experimental: Lucilia cuprina-Test (LUCICU)
as §4
To produce a suitable preparation of active compound, 10 mg of active compound are mixed with 0.5 ml of dimethyl sulfoxide, and the concentrate is diluted with water to the desired concentration.
About 20 L1 larvae of the Australian sheep blowfly (Lucilia cuprina) are transferred into a test vessel containing minced horsemeat and the active compound preparation of the desired concentration.
After the desired time, the kill in % is determined. 100% means that all the larvae have been killed; 0% means that no larvae have been killed.

Q: For `CCOc1cc(C(=O)Nc2c(C)cc(C=NOC)cc2C(=O)NC(C)C2CC2)n(-c2ncccc2Cl)n1` (stereo not drawn) [C-27], which “efficacy (caterpillars killed)” value (Spodoptera frugiperda) is on record?
A: Its value is 100%.

Q: And the “efficacy (beetle larvae killed)” value (Phaedon cochleariae)?
A: The value was 100%.

Q: And the log p [1]?
A: Its log p is 3.38.

Q: What about the “efficacy (aphids killed)” value (Myzus persicae; application rate 100 g/ha) of the same compound?
A: Its value is 90%.

Q: For `CON=Cc1cc(C)c(NC(=O)c2cc(C(F)F)nn2-c2ncccc2Cl)c(C(=O)NC2CC2)c1` [C-34], which “efficacy (caterpillars killed)” value (Spodoptera frugiperda) is on record?
A: Its value is 100%.

Q: And the “efficacy (no fertile eggs laid)” value (Boophilus microplus)?
A: The value was 100%.

Q: What about the “efficacy (beetle larvae killed)” value (Phaedon cochleariae) of the same compound?
A: The value was 100%.

Q: What about the “efficacy (kill of L1 larvae)” value (Lucilia cuprina) of the same compound?
A: Its value is 100%.

Q: What about the log p [1] of the same compound?
A: Its log p is 2.72.

Q: What about the “efficacy (aphids killed)” value (Myzus persicae; application rate 100 g/ha) of the same compound?
A: The value was 100%.

Q: Which “efficacy (caterpillars killed)” value (Spodoptera frugiperda) does the source give for `CON=Cc1cc(C)c(NC(=O)c2cc(C(F)F)nn2-c2ncccc2Cl)c(C(=O)NC(C)(C)C)c1` [C-35] here?
A: Its value is 100%.

Q: And the “efficacy (beetle larvae killed)” value (Phaedon cochleariae)?
A: Its value is 100%.

Q: And the log p [1]?
A: Its log p is 3.34.

Q: What about the “efficacy (aphids killed)” value (Myzus persicae; application rate 100 g/ha) of the same compound?
A: Its value is 90%.

Q: With `CON=Cc1cc(C)c(NC(=O)c2cc(C(F)F)nn2-c2ncccc2Cl)c(C(=O)NC(C)C2CC2)c1` (stereo not drawn) [C-36] as the compound, how does the “efficacy (caterpillars killed)” value (Spodoptera frugiperda) read?
A: The value was 100%.

Q: And the “efficacy (beetle larvae killed)” value (Phaedon cochleariae)?
A: The value was 100%.

Q: And the log p [1]?
A: Its log p is 3.29.

Q: And the “efficacy (aphids killed)” value (Myzus persicae; application rate 100 g/ha)?
A: The value was 90%.

Q: For `CCNC(=O)c1cc(C=NOC)cc(C)c1NC(=O)c1cc(OCC(F)F)nn1-c1ncccc1Cl` [C-46], which “efficacy (caterpillars killed)” value (Spodoptera frugiperda) is on record?
A: Its value is 100%.

Q: And the “efficacy (no fertile eggs laid)” value (Boophilus microplus)?
A: The value was 100%.

Q: What about the “efficacy (kill of L1 larvae)” value (Lucilia cuprina) of the same compound?
A: Its value is 100%.

Q: What about the log p [1] of the same compound?
A: The log p was 2.81.

Q: What about the “efficacy (aphids killed)” value (Myzus persicae; application rate 100 g/ha) of the same compound?
A: The value was 100%.

Q: With `CCNC(=O)c1cc(C=NOC)cc(C)c1NC(=O)c1cc(OC)nn1-c1ncccc1Cl` [C-47] as the compound, how does the “efficacy (caterpillars killed)” value (Spodoptera frugiperda) read?
A: Its value is 100%.

Q: And the “efficacy (beetle larvae killed)” value (Phaedon cochleariae)?
A: The value was 100%.

Q: What about the log p [1] of the same compound?
A: Its log p is 2.41.

Q: What about the “efficacy (aphids killed)” value (Myzus persicae; application rate 100 g/ha) of the same compound?
A: The value was 100%.

Q: Which “efficacy (caterpillars killed)” value (Spodoptera frugiperda) does the source give for `C#CCNC(=O)c1cc(C=NOC)cc(C)c1NC(=O)c1cc(OC)nn1-c1ncccc1Cl` [C-48] here?
A: The value was 100%.

Q: And the “efficacy (beetle larvae killed)” value (Phaedon cochleariae)?
A: Its value is 100%.

Q: And the log p [1]?
A: Its log p is 2.40.

Q: And the “efficacy (aphids killed)” value (Myzus persicae; application rate 100 g/ha)?
A: Its value is 100%.

Q: With `CON=Cc1cc(C)c(NC(=O)c2cc(CF)nn2-c2ncccc2Cl)c(C(=O)NC(C)C)c1` [C-49] as the compound, how does the “efficacy (caterpillars killed)” value (Spodoptera frugiperda) read?
A: Its value is 100%.

Q: And the “efficacy (beetle larvae killed)” value (Phaedon cochleariae)?
A: Its value is 100%.

Q: And the log p [1]?
A: Its log p is 2.65.

Q: What about the “efficacy (aphids killed)” value (Myzus persicae; application rate 100 g/ha) of the same compound?
A: The value was 90%.

Q: What does the source list for `CCNC(=O)c1cc(C=NOC)cc(C)c1NC(=O)c1cc(CF)nn1-c1ncccc1Cl` [C-53]?
A: efficacy (caterpillars killed) (Spodoptera frugiperda): 100%; efficacy (beetle larvae killed) (Phaedon cochleariae): 100%; log p [1]: 2.39; efficacy (aphids killed) (Myzus persicae; application rate 100 g/ha): 90%

Q: With `COCCNC(=O)c1cc(C=NOC)cc(C)c1NC(=O)c1cc(CF)nn1-c1ncccc1Cl` [C-56] as the compound, how does the “efficacy (caterpillars killed)” value (Spodoptera frugiperda) read?
A: The value was 100%.

Q: What about the “efficacy (beetle larvae killed)” value (Phaedon cochleariae) of the same compound?
A: Its value is 100%.

Q: What about the log p [1] of the same compound?
A: Its log p is 2.27.

Q: What about the “efficacy (aphids killed)” value (Myzus persicae; application rate 20 g/ha) of the same compound?
A: Its value is 90%.

Q: Which results are given for `C#CCNC(=O)c1cc(C=NOC)cc(C)c1NC(=O)c1cc(CF)nn1-c1ncccc1Cl` [C-57]?
A: efficacy (caterpillars killed) (Spodoptera frugiperda): 100%; efficacy (beetle larvae killed) (Phaedon cochleariae): 100%; log p [1]: 2.38; efficacy (aphids killed) (Myzus persicae; application rate 100 g/ha): 90%

Q: Which results are given for `COCCNC(=O)c1cc(C=NOC)cc(C)c1NC(=O)c1cc(C(F)F)nn1-c1ncccc1Cl` [C-59]?
A: efficacy (caterpillars killed) (Spodoptera frugiperda): 100%; efficacy (beetle larvae killed) (Phaedon cochleariae): 100%; log p [1]: 2.53; efficacy (aphids killed) (Myzus persicae; application rate 100 g/ha): 90%

Q: Which “efficacy (caterpillars killed)” value (Spodoptera frugiperda) does the source give for `COCC(C)NC(=O)c1cc(C=NOC)cc(C)c1NC(=O)c1cc(C(F)F)nn1-c1ncccc1Cl` (stereo not drawn) [C-60] here?
A: The value was 100%.

Q: What about the “efficacy (beetle larvae killed)” value (Phaedon cochleariae) of the same compound?
A: Its value is 100%.

Q: What about the log p [1] of the same compound?
A: The log p was 2.84.

Q: And the “efficacy (aphids killed)” value (Myzus persicae; application rate 100 g/ha)?
A: The value was 100%.

Q: With `C#CCNC(=O)c1cc(C=NOC)cc(C)c1NC(=O)c1cc(C(F)F)nn1-c1ncccc1Cl` [C-62] as the compound, how does the “efficacy (caterpillars killed)” value (Spodoptera frugiperda) read?
A: The value was 100%.

Q: And the “efficacy (beetle larvae killed)” value (Phaedon cochleariae)?
A: Its value is 100%.

Q: What about the log p [1] of the same compound?
A: The log p was 2.69.

Q: And the “efficacy (aphids killed)” value (Myzus persicae; application rate 100 g/ha)?
A: The value was 90%.

Q: Which results are given for `CCNC(=O)c1cc(C=NOC)cc(C)c1NC(=O)c1cc(C(F)F)nn1-c1ncccc1Cl` [C-63]?
A: efficacy (caterpillars killed) (Spodoptera frugiperda): 100%; efficacy (beetle larvae killed) (Phaedon cochleariae): 100%; log p [1]: 2.71; efficacy (aphids killed) (Myzus persicae; application rate 100 g/ha): 100%
